Measurements published in patent publication US20250082624A1, “METHODS OF TREATING COGNITIVE IMPAIRMENT” (NeuroTherapia, Inc., priority 2023, published 2025).
“Also recorded” adds a separate entry of the source. Where two headings read alike, the source gives them in different places.

Assay: Phase 1b MAD plasma pharmacokinetics, non-compartmental analysis
Assay type: in vivo, human
From the text: Methods: All study procedures were approved by the IRB, and informed consent was obtained. Three cohorts of volunteers 45-80 years of age with well-controlled comorbidities (NOAD) and one cohort of AD patients diagnosed with cognitive impairment consistent with prodromal AD per International Working Group criteria or mild AD per National Institute on Aging—Alzheimer's Association criteria (n=6 active, 2 placebo per cohort) were enrolled. Participants were admitted to the study site for the duration of the dosing and returned 7-12 days after the last dose for a safety visit. Participants received NTRX-07 (10, 30, or 90 mg) or a placebo in a double-blinded randomization orally once daily for seven days. Subjects were assessed for changes in vital signs, including maneuvers to induce lightheadedness, electrocardiograms, 24-hour electroencephalograms (EEG), and safety laboratory studies. The second cohort returned and received a single repeat dose after a standard high-fat meal. The AD cohort also underwent cognitive testing and had blood samples for biomarkers drawn. Subjects had PK sampling done after the first and final dose of the study drug. An independent safety review committee conducted a blinded safety review of adverse events and plasma levels between each cohort.
All subjects had PK sampling done after the first and final dose of the study drug.
Raw bioanalytical data were received from Nuvisan following analysis of plasma samples from each of four cohorts. PK parameters were calculated by noncompartmental analysis using standard equations. Specifically, area under the plasma concentration versus time curve (AUC) was calculated using the trapezoid rule. Maximal plasma concentration (Cmax) and time of maximal plasma concentration (Tmax) were taken directly from the data. Clearance divided by bioavailability (Cl/F) was calculated as the dose divided by the AUC. Apparent volume of distribution over bioavailability (Vd/F) was calculated as dose divided by Cmax.
With oral administration of the dose every 24 hours for 7 days, blood samples were taken over a 24-hour interval on Days 1 and 7 and before and after dosing on Day 3.
Raw bioanalytical data were received from Nuvisan on Oct. 27, 2022. […] Specifically, area under the plasma concentration versus time curve (AUC) was calculated using the trapezoid rule. Maximal plasma concentration (Cmax) and time of maximal plasma concentration (Tmax) were taken directly from the data. Clearance divided by bioavailability (Cl/F) was calculated as the dose divided by the AUC. Apparent volume of distribution over bioavailability (Vd/F) was calculated as dose divided by Cmax.
Raw bioanalytical data were received from Nuvisan on Nov. 24, 2022. […] Specifically, area under the plasma concentration versus time curve (AUC) was calculated using the trapezoid rule. Maximal plasma concentration (Cmax) and time of maximal plasma concentration (Tmax) were taken directly from the data. Clearance divided by bioavailability (Cl/F) was calculated as the dose divided by the AUC. Apparent volume of distribution over bioavailability (Vd/F) was calculated as dose divided by Cmax.
Raw bioanalytical data were received from Nuvisan on Dec. 19, 2022. […] Specifically, area under the plasma concentration versus time curve (AUC) was calculated using the trapezoid rule. Maximal plasma concentration (Cmax) and time of maximal plasma concentration (Tmax) were taken directly from the data. Clearance divided by bioavailability (Cl/F) was calculated as the dose divided by the AUC. Apparent volume of distribution over bioavailability (Vd/F) was calculated as dose divided by Cmax.
Raw bioanalytical data were received from Nuvisan on Jun. 30, 2023. […] Specifically, area under the plasma concentration versus time curve (AUC) was calculated using the trapezoid rule. Maximal plasma concentration (Cmax) and time of maximal plasma concentration (Tmax) were taken directly from the data. […]

Q: What does the source list for `CC1(Cc2ccccc2)COc2cc(C(=O)N3CCCCC3)ccc21` (stereo not drawn) [NTRX-07, 3-benzyl-3-methyl-2,3-dihydrobenzofuran-6-carboxylic acid-piperidine amide]?
A: Cmax (human, plasma, po, 90 mg, Cohort D AD patients, 90 mg QD oral, Day 7, mean ± SD, read-out: Average of Cmax): 240 ± 38 ng/mL; Tmax (human, plasma, po, 90 mg, Cohort D AD patients, 90 mg QD oral, Day 7, mean ± SD, read-out: Average of Tmax): 1.1 ± 0.5 h; Vd/F (human, plasma, po, 90 mg, Cohort D AD patients, 90 mg QD oral, Day 7, mean ± SD, read-out: Average of Vd/F): 384 ± 69 L; AUC over 24 h (AUC0-24) (human, plasma, po, 90 mg, Table 14: Cohort C, 90 mg QD oral, Day 1, mean ± S.D.): 1270 ± 509 ng·h/mL; Cmax (human, plasma, po, 90 mg, Table 14: Cohort C, 90 mg QD oral, Day 1, mean ± S.D., read-out: Cmax): 400 ± 202 ng/mL; Tmax (human, plasma, po, 90 mg, Table 14: Cohort C, 90 mg QD oral, Day 1, mean ± S.D., read-out: Tmax): 2.3 ± 2.2 h; Vd/F (human, plasma, po, 90 mg, Table 14: Cohort C, 90 mg QD oral, Day 1, mean ± S.D., read-out: Vd/F): 337 ± 316 L; AUC over 24 h (AUC0-24) (human, plasma, po, 90 mg, Table 15: Cohort C, 90 mg QD oral, Day 7, mean ± S.D.): 741 ± 357 ng·h/mL; Cmax (human, plasma, po, 90 mg, Table 15: Cohort C, 90 mg QD oral, Day 7, mean ± S.D., read-out: Cmax): 189 ± 95 ng/mL; Tmax (human, plasma, po, 90 mg, Table 15: Cohort C, 90 mg QD oral, Day 7, mean ± S.D., read-out: Tmax): 1.3 ± 1 h; Vd/F (human, plasma, po, 90 mg, Table 15: Cohort C, 90 mg QD oral, Day 7, mean ± S.D., read-out: Vd/F): 568 ± 231 L; AUC(0-t) (human, plasma, po, 90 mg, Table 16: Cohort D (AD), 90 mg QD oral, Day 1, mean ± S.D., read-out: AUClast): 1560 ± 605 ng·h/mL; Cmax (human, plasma, po, 90 mg, Table 16: Cohort D (AD), 90 mg QD oral, Day 1, mean ± S.D., read-out: Cmax): 478 ± 154 ng/mL; Tmax (human, plasma, po, 90 mg, Table 16: Cohort D (AD), 90 mg QD oral, Day 1, mean ± S.D., read-out: Tmax): 1.1 ± 0.6 h; Vd/F (human, plasma, po, 90 mg, Table 16: Cohort D (AD), 90 mg QD oral, Day 1, mean ± S.D., read-out: Vd/F): 211 ± 90 L; AUC over 24 h (AUC0-24) (human, plasma, po, 90 mg, Table 17: Cohort D (AD), 90 mg QD oral, Day 7, individual subjects): 623 ng·h/mL; Cmax (human, plasma, po, 90 mg, Table 17: Cohort D (AD), 90 mg QD oral, Day 7, individual subjects, read-out: Cmax): 286 ng/mL; Vd/F (human, plasma, po, 90 mg, Table 17: Cohort D (AD), 90 mg QD oral, Day 7, individual subjects, read-out: Vd/F): 315 L; AUC over 24 h (AUC0-24) (human, plasma, po, 90 mg, Table 17: Cohort D (AD), 90 mg QD oral, Day 7, mean ± S.D.): 806 ± 196 ng·h/mL; Cmax (human, plasma, po, 90 mg, Table 17: Cohort D (AD), 90 mg QD oral, Day 7, mean ± S.D., read-out: Cmax): 240 ± 38 ng/mL; Tmax (human, plasma, po, 90 mg, Table 17: Cohort D (AD), 90 mg QD oral, Day 7, mean ± S.D., read-out: Tmax): 1.1 ± 0.5 h; Vd/F (human, plasma, po, 90 mg, Table 17: Cohort D (AD), 90 mg QD oral, Day 7, mean ± S.D., read-out: Vd/F): 384 ± 69 L; AUC over 24 h (AUC0-24) (human, plasma, po, 120 mg, Table 24 (interim): Cohort B, 120 mg SDD (30 mg NTRX-07) QD oral, Day 1, mean ± S.D.): 323 ± 213 ng·h/mL; Cmax (human, plasma, po, 120 mg, Table 24 (interim): Cohort B, 120 mg SDD (30 mg NTRX-07) QD oral, Day 1, mean ± S.D., read-out: Cmax): 109 ± 57.8 ng/mL; Tmax (human, plasma, po, 120 mg, Table 24 (interim): Cohort B, 120 mg SDD (30 mg NTRX-07) QD oral, Day 1, mean ± S.D., read-out: Tmax): 0.9 ± 0.6 h; Vd/F (human, plasma, po, 120 mg, Table 24 (interim): Cohort B, 120 mg SDD (30 mg NTRX-07) QD oral, Day 1, mean ± S.D., read-out: Vd/F): 1340 ± 750 L; Tmax (human, plasma, po, 120 mg, Table 25 (interim): Cohort B, 120 mg SDD (30 mg NTRX-07) QD oral, Day 7, individual subjects, read-out: Tmax): 0.5 h; AUC over 24 h (AUC0-24) (human, plasma, po, 120 mg, Table 25 (interim): Cohort B, 120 mg SDD (30 mg NTRX-07) QD oral, Day 7, mean ± S.D.): 214 ± 191 ng·h/mL; Cmax (human, plasma, po, 120 mg, Table 25 (interim): Cohort B, 120 mg SDD (30 mg NTRX-07) QD oral, Day 7, mean ± S.D., read-out: Cmax): 120 ± 79.2 ng/mL; Tmax (human, plasma, po, 120 mg, Table 25 (interim): Cohort B, 120 mg SDD (30 mg NTRX-07) QD oral, Day 7, mean ± S.D., read-out: Tmax): 0.5 h; Vd/F (human, plasma, po, 120 mg, Table 25 (interim): Cohort B, 120 mg SDD (30 mg NTRX-07) QD oral, Day 7, mean ± S.D., read-out: Vd/F): 1240 ± 936 L; AUC over 24 h (AUC0-24) (human, plasma, po, 360 mg SDD, Table 29 (interim): Cohort C, 360 mg SDD (90 mg NTRX-07) QD oral, Day 1, mean ± S.D.): 1290 ± 541 ng·h/mL; Cmax (human, plasma, po, 360 mg SDD, Table 29 (interim): Cohort C, 360 mg SDD (90 mg NTRX-07) QD oral, Day 1, mean ± S.D., read-out: Cmax): 439 ± 236 ng/mL; Tmax (human, plasma, po, 360 mg SDD, Table 29 (interim): Cohort C, 360 mg SDD (90 mg NTRX-07) QD oral, Day 1, mean ± S.D., read-out: Tmax): 2.3 ± 2.8 h; Vd/F (human, plasma, po, 360 mg SDD, Table 29 (interim): Cohort C, 360 mg SDD (90 mg NTRX-07) QD oral, Day 1, mean ± S.D., read-out: Vd/F): 1300 ± 1290 L; AUC over 24 h (AUC0-24) (human, plasma, po, 360 mg SDD, Table 30 (interim): Cohort C, 360 mg SDD (90 mg NTRX-07) QD oral, Day 7, mean ± S.D.): 747 ± 349 ng·h/mL; Cmax (human, plasma, po, 360 mg SDD, Table 30 (interim): Cohort C, 360 mg SDD (90 mg NTRX-07) QD oral, Day 7, mean ± S.D., read-out: Cmax): 189 ± 95 ng/mL; Tmax (human, plasma, po, 360 mg SDD, Table 30 (interim): Cohort C, 360 mg SDD (90 mg NTRX-07) QD oral, Day 7, mean ± S.D., read-out: Tmax): 1.3 ± 1 h; Vd/F (human, plasma, po, 360 mg SDD, Table 30 (interim): Cohort C, 360 mg SDD (90 mg NTRX-07) QD oral, Day 7, mean ± S.D., read-out: Vd/F): 2270 ± 923 L; AUC over 24 h (AUC0-24) (human, plasma, po, 360 mg SDD, Table 34 (interim): Cohort D (AD), 360 mg SDD (90 mg NTRX-07) QD oral, Day 1, mean ± S.D.): 1560 ± 329 ng·h/mL; Cmax (human, plasma, po, 360 mg SDD, Table 34 (interim): Cohort D (AD), 360 mg SDD (90 mg NTRX-07) QD oral, Day 1, mean ± S.D., read-out: Cmax): 478 ± 154 ng/mL; Tmax (human, plasma, po, 360 mg SDD, Table 34 (interim): Cohort D (AD), 360 mg SDD (90 mg NTRX-07) QD oral, Day 1, mean ± S.D., read-out: Tmax): 1.1 ± 0.6 h; Vd/F (human, plasma, po, 360 mg SDD, Table 34 (interim): Cohort D (AD), 360 mg SDD (90 mg NTRX-07) QD oral, Day 1, mean ± S.D., read-out: Vd/F): 845 ± 360 L; AUC over 24 h (AUC0-24) (human, plasma, po, 360 mg SDD, Table 35 (interim): Cohort D (AD), 360 mg SDD (90 mg NTRX-07) QD oral, Day 7, individual subjects): 1010 ng·h/mL; Cmax (human, plasma, po, 360 mg SDD, Table 35 (interim): Cohort D (AD), 360 mg SDD (90 mg NTRX-07) QD oral, Day 7, individual subjects, read-out: Cmax): 286 ng/mL; Vd/F (human, plasma, po, 360 mg SDD, Table 35 (interim): Cohort D (AD), 360 mg SDD (90 mg NTRX-07) QD oral, Day 7, individual subjects, read-out: Vd/F): 1260 L; AUC over 24 h (AUC0-24) (human, plasma, po, 360 mg SDD, Table 35 (interim): Cohort D (AD), 360 mg SDD (90 mg NTRX-07) QD oral, Day 7, mean ± S.D.): 1430 ± 329 ng·h/mL; Cmax (human, plasma, po, 360 mg SDD, Table 35 (interim): Cohort D (AD), 360 mg SDD (90 mg NTRX-07) QD oral, Day 7, mean ± S.D., read-out: Cmax): 240 ± 38 ng/mL; Tmax (human, plasma, po, 360 mg SDD, Table 35 (interim): Cohort D (AD), 360 mg SDD (90 mg NTRX-07) QD oral, Day 7, mean ± S.D., read-out: Tmax): 1.1 ± 0.5 h; Vd/F (human, plasma, po, 360 mg SDD, Table 35 (interim): Cohort D (AD), 360 mg SDD (90 mg NTRX-07) QD oral, Day 7, mean ± S.D., read-out: Vd/F): 1540 ± 278 L; Plasma levels / exposure Day 7 vs Day 1 (repeat QD dosing, 90 mg cohorts): A decrease of levels at Day 7 was observed; also recorded: exposure is decreasing rather than increasing over time
